# System: LpxC enzyme
# Assay: LpxC enzyme assay (RapidFire high-throughput mass spectrometry)
# Format: biochemical
# Conditions: concentration 0.10 (unit not given)
# How it was run: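 0.2 nM enzyme with 1.0 μM UDP-3-O-(R-3-hydroxymyristoyl)-N-acetylglucosamine in 25 mM HEPES pH 7.3, 150 mM NaCl, 2.0 mM DTT, 0.01% BSA, 2% DMSO; 60 min at room temperature, quenched with HCl. Substrate and product quantified by RapidFire mass spectrometry; percent conversion gives percent inhibition versus DMSO control.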
row,SMILES,LpxC enzyme assay rating (% inhibition at indicated concentrations)
1,O=C(Nc1ccc(C#Cc2ccccc2)cc1)[C@H](O)[C@@H](O)C(=O)N1CCCC1 [Compound 63],B (10-30% inhibition)
2,O=C(Nc1ccc(-c2ccccc2)cc1)[C@H](O)[C@@H](O)C(=O)N1CCCC1 [Compound 64],B (10-30% inhibition)
3,O=C(Nc1ccc(-c2ccc(C(F)(F)F)cc2)cc1)[C@H](O)[C@@H](O)C(=O)N1CCCC1 [Compound 65],B (10-30% inhibition)
4,CCCCc1ccc(NC(=O)[C@H](O)[C@@H](O)C(=O)N2CCCC2)cc1 [Compound 66],C (less than 10% inhibition)
5,CCCc1ccc(NC(=O)[C@H](O)[C@@H](O)C(=O)N2CCCC2)cc1 [Compound 67],B (10-30% inhibition)
6,CCC(C)c1ccc(NC(=O)[C@H](O)[C@@H](O)C(=O)N2CCCC2)cc1 (stereo partly drawn) [Compound 68],C (less than 10% inhibition)

# Same assay, conditions: concentration 0.20 (unit not given)
row,SMILES,LpxC enzyme assay rating (% inhibition at indicated concentrations)
1,O=C(Nc1ccc(C#Cc2ccccc2)cc1)[C@H](O)[C@@H](O)C(=O)N1CCCC1 [Compound 63],B (10-30% inhibition)
2,O=C(Nc1ccc(-c2ccccc2)cc1)[C@H](O)[C@@H](O)C(=O)N1CCCC1 [Compound 64],B (10-30% inhibition)
3,O=C(Nc1ccc(-c2ccc(C(F)(F)F)cc2)cc1)[C@H](O)[C@@H](O)C(=O)N1CCCC1 [Compound 65],B (10-30% inhibition)
4,CCCCc1ccc(NC(=O)[C@H](O)[C@@H](O)C(=O)N2CCCC2)cc1 [Compound 66],C (less than 10% inhibition)
5,CCCc1ccc(NC(=O)[C@H](O)[C@@H](O)C(=O)N2CCCC2)cc1 [Compound 67],B (10-30% inhibition)
6,CCC(C)c1ccc(NC(=O)[C@H](O)[C@@H](O)C(=O)N2CCCC2)cc1 (stereo partly drawn) [Compound 68],C (less than 10% inhibition)

# Same assay, conditions: concentration 0.39 (unit not given)
row,SMILES,LpxC enzyme assay rating (% inhibition at indicated concentrations)
1,O=C(Nc1ccc(C#Cc2ccccc2)cc1)[C@H](O)[C@@H](O)C(=O)N1CCCC1 [Compound 63],B (10-30% inhibition)
2,O=C(Nc1ccc(-c2ccccc2)cc1)[C@H](O)[C@@H](O)C(=O)N1CCCC1 [Compound 64],C (less than 10% inhibition)
3,O=C(Nc1ccc(-c2ccc(C(F)(F)F)cc2)cc1)[C@H](O)[C@@H](O)C(=O)N1CCCC1 [Compound 65],B (10-30% inhibition)
4,CCCCc1ccc(NC(=O)[C@H](O)[C@@H](O)C(=O)N2CCCC2)cc1 [Compound 66],B (10-30% inhibition)
5,CCCc1ccc(NC(=O)[C@H](O)[C@@H](O)C(=O)N2CCCC2)cc1 [Compound 67],B (10-30% inhibition)
6,CCC(C)c1ccc(NC(=O)[C@H](O)[C@@H](O)C(=O)N2CCCC2)cc1 (stereo partly drawn) [Compound 68],C (less than 10% inhibition)

# Same assay, conditions: concentration 0.78 (unit not given)
row,SMILES,LpxC enzyme assay rating (% inhibition at indicated concentrations)
1,O=C(Nc1ccc(C#Cc2ccccc2)cc1)[C@H](O)[C@@H](O)C(=O)N1CCCC1 [Compound 63],C (less than 10% inhibition)
2,O=C(Nc1ccc(-c2ccccc2)cc1)[C@H](O)[C@@H](O)C(=O)N1CCCC1 [Compound 64],B (10-30% inhibition)
3,O=C(Nc1ccc(-c2ccc(C(F)(F)F)cc2)cc1)[C@H](O)[C@@H](O)C(=O)N1CCCC1 [Compound 65],C (less than 10% inhibition)
4,CCCCc1ccc(NC(=O)[C@H](O)[C@@H](O)C(=O)N2CCCC2)cc1 [Compound 66],C (less than 10% inhibition)
5,CCCc1ccc(NC(=O)[C@H](O)[C@@H](O)C(=O)N2CCCC2)cc1 [Compound 67],C (less than 10% inhibition)
6,CCC(C)c1ccc(NC(=O)[C@H](O)[C@@H](O)C(=O)N2CCCC2)cc1 (stereo partly drawn) [Compound 68],C (less than 10% inhibition)

# Same assay, conditions: concentration 1.56 (unit not given)
row,SMILES,LpxC enzyme assay rating (% inhibition at indicated concentrations)
1,O=C(Nc1ccc(C#Cc2ccccc2)cc1)[C@H](O)[C@@H](O)C(=O)N1CCCC1 [Compound 63],B (10-30% inhibition)
2,O=C(Nc1ccc(-c2ccccc2)cc1)[C@H](O)[C@@H](O)C(=O)N1CCCC1 [Compound 64],C (less than 10% inhibition)
3,O=C(Nc1ccc(-c2ccc(C(F)(F)F)cc2)cc1)[C@H](O)[C@@H](O)C(=O)N1CCCC1 [Compound 65],B (10-30% inhibition)
4,CCCCc1ccc(NC(=O)[C@H](O)[C@@H](O)C(=O)N2CCCC2)cc1 [Compound 66],B (10-30% inhibition)
5,CCCc1ccc(NC(=O)[C@H](O)[C@@H](O)C(=O)N2CCCC2)cc1 [Compound 67],C (less than 10% inhibition)
6,CCC(C)c1ccc(NC(=O)[C@H](O)[C@@H](O)C(=O)N2CCCC2)cc1 (stereo partly drawn) [Compound 68],C (less than 10% inhibition)

# Same assay, conditions: concentration 3.13 (unit not given)
row,SMILES,LpxC enzyme assay rating (% inhibition at indicated concentrations)
1,O=C(Nc1ccc(C#Cc2ccccc2)cc1)[C@H](O)[C@@H](O)C(=O)N1CCCC1 [Compound 63],B (10-30% inhibition)
2,O=C(Nc1ccc(-c2ccccc2)cc1)[C@H](O)[C@@H](O)C(=O)N1CCCC1 [Compound 64],B (10-30% inhibition)
3,O=C(Nc1ccc(-c2ccc(C(F)(F)F)cc2)cc1)[C@H](O)[C@@H](O)C(=O)N1CCCC1 [Compound 65],B (10-30% inhibition)
4,CCCCc1ccc(NC(=O)[C@H](O)[C@@H](O)C(=O)N2CCCC2)cc1 [Compound 66],B (10-30% inhibition)
5,CCCc1ccc(NC(=O)[C@H](O)[C@@H](O)C(=O)N2CCCC2)cc1 [Compound 67],C (less than 10% inhibition)
6,CCC(C)c1ccc(NC(=O)[C@H](O)[C@@H](O)C(=O)N2CCCC2)cc1 (stereo partly drawn) [Compound 68],B (10-30% inhibition)

# Same assay, conditions: concentration 6.25 (unit not given)
row,SMILES,LpxC enzyme assay rating (% inhibition at indicated concentrations)
1,O=C(Nc1ccc(C#Cc2ccccc2)cc1)[C@H](O)[C@@H](O)C(=O)N1CCCC1 [Compound 63],B (10-30% inhibition)
2,O=C(Nc1ccc(-c2ccccc2)cc1)[C@H](O)[C@@H](O)C(=O)N1CCCC1 [Compound 64],B (10-30% inhibition)
3,O=C(Nc1ccc(-c2ccc(C(F)(F)F)cc2)cc1)[C@H](O)[C@@H](O)C(=O)N1CCCC1 [Compound 65],B (10-30% inhibition)
4,CCCCc1ccc(NC(=O)[C@H](O)[C@@H](O)C(=O)N2CCCC2)cc1 [Compound 66],B (10-30% inhibition)
5,CCCc1ccc(NC(=O)[C@H](O)[C@@H](O)C(=O)N2CCCC2)cc1 [Compound 67],B (10-30% inhibition)
6,CCC(C)c1ccc(NC(=O)[C@H](O)[C@@H](O)C(=O)N2CCCC2)cc1 (stereo partly drawn) [Compound 68],B (10-30% inhibition)

# Same assay, conditions: concentration 12.50 (unit not given)
row,SMILES,LpxC enzyme assay rating (% inhibition at indicated concentrations)
1,O=C(Nc1ccc(C#Cc2ccccc2)cc1)[C@H](O)[C@@H](O)C(=O)N1CCCC1 [Compound 63],A (greater than 30% inhibition)
2,O=C(Nc1ccc(-c2ccccc2)cc1)[C@H](O)[C@@H](O)C(=O)N1CCCC1 [Compound 64],B (10-30% inhibition)
3,O=C(Nc1ccc(-c2ccc(C(F)(F)F)cc2)cc1)[C@H](O)[C@@H](O)C(=O)N1CCCC1 [Compound 65],B (10-30% inhibition)
4,CCCCc1ccc(NC(=O)[C@H](O)[C@@H](O)C(=O)N2CCCC2)cc1 [Compound 66],B (10-30% inhibition)
5,CCCc1ccc(NC(=O)[C@H](O)[C@@H](O)C(=O)N2CCCC2)cc1 [Compound 67],C (less than 10% inhibition)
6,CCC(C)c1ccc(NC(=O)[C@H](O)[C@@H](O)C(=O)N2CCCC2)cc1 (stereo partly drawn) [Compound 68],C (less than 10% inhibition)

# Same assay, conditions: concentration 25 (unit not given)
row,SMILES,LpxC enzyme assay rating (% inhibition at indicated concentrations)
1,O=C(Nc1ccc(C#Cc2ccccc2)cc1)[C@H](O)[C@@H](O)C(=O)N1CCCC1 [Compound 63],A (greater than 30% inhibition)
2,O=C(Nc1ccc(-c2ccccc2)cc1)[C@H](O)[C@@H](O)C(=O)N1CCCC1 [Compound 64],B (10-30% inhibition)
3,O=C(Nc1ccc(-c2ccc(C(F)(F)F)cc2)cc1)[C@H](O)[C@@H](O)C(=O)N1CCCC1 [Compound 65],B (10-30% inhibition)
4,CCCCc1ccc(NC(=O)[C@H](O)[C@@H](O)C(=O)N2CCCC2)cc1 [Compound 66],A (greater than 30% inhibition)
5,CCCc1ccc(NC(=O)[C@H](O)[C@@H](O)C(=O)N2CCCC2)cc1 [Compound 67],B (10-30% inhibition)
6,CCC(C)c1ccc(NC(=O)[C@H](O)[C@@H](O)C(=O)N2CCCC2)cc1 (stereo partly drawn) [Compound 68],B (10-30% inhibition)

# Same assay, conditions: concentration 50 (unit not given)
row,SMILES,LpxC enzyme assay rating (% inhibition at indicated concentrations)
1,O=C(Nc1ccc(C#Cc2ccccc2)cc1)[C@H](O)[C@@H](O)C(=O)N1CCCC1 [Compound 63],A (greater than 30% inhibition)
2,O=C(Nc1ccc(-c2ccccc2)cc1)[C@H](O)[C@@H](O)C(=O)N1CCCC1 [Compound 64],B (10-30% inhibition)
3,O=C(Nc1ccc(-c2ccc(C(F)(F)F)cc2)cc1)[C@H](O)[C@@H](O)C(=O)N1CCCC1 [Compound 65],B (10-30% inhibition)
4,CCCCc1ccc(NC(=O)[C@H](O)[C@@H](O)C(=O)N2CCCC2)cc1 [Compound 66],B (10-30% inhibition)
5,CCCc1ccc(NC(=O)[C@H](O)[C@@H](O)C(=O)N2CCCC2)cc1 [Compound 67],B (10-30% inhibition)
6,CCC(C)c1ccc(NC(=O)[C@H](O)[C@@H](O)C(=O)N2CCCC2)cc1 (stereo partly drawn) [Compound 68],B (10-30% inhibition)
